# Test: Solubility of Acid Blue 93 in several solvents
# Format: physicochemical
# Protocol: The solubility of Acid Blue 93, a water-soluble pH-sensitive triarylmethane dye, was determined by stirring 5 wt.-%0 of the dye in 95 wt.-%0 of the solvent. The following results reported in below Table 1 were obtained:
# This is surprising since these water-soluble dyes are commonly known to be insoluble in organic solvents, as also seen in the above comparative solvents. In these comparative solvents, it can be observed that the solvent is not colored and that the dye remains in the form of particles and precipitates at the bottom of the recipient.
smiles,measurement,setting,value
O=S(=O)([O-])c1ccc(N=C2C=CC(=C(c3ccc(Nc4ccc(S(=O)(=O)[O-])cc4)cc3)c3ccc(Nc4ccc(S(=O)(=O)O)cc4)cc3)C=C2)cc1.[Na+].[Na+] [Acid Blue 93],Solubility,"5 wt.-% dye stirred in 95 wt.-% 1,2-propanediol",Soluble
same,Solubility,5 wt.-% dye stirred in 95 wt.-% 1-phenoxy-2-propanol,Insoluble
same,Solubility,5 wt.-% dye stirred in 95 wt.-% 1-phenoxy-ethanol,Insoluble
same,Solubility,5 wt.-% dye stirred in 95 wt.-% Carbitol (CAS 111-90-0),Insoluble
same,Solubility,5 wt.-% dye stirred in 95 wt.-% benzylic alcohol,Insoluble
same,Solubility,5 wt.-% dye stirred in 95 wt.-% cyrene,Insoluble
same,Solubility,5 wt.-% dye stirred in 95 wt.-% diethyleneglycol,Soluble
same,Solubility,5 wt.-% dye stirred in 95 wt.-% dimethylsulfoxide,Soluble
same,Solubility,5 wt.-% dye stirred in 95 wt.-% dipropylene glycol,Insoluble
same,Solubility,5 wt.-% dye stirred in 95 wt.-% monoethyleneglycol,Soluble

# Reference: patent US20240059915A1, “COLOR-CHANGE INK” (Société BIC, priority 2020, published 2024)
